In brackets after ≈: the same amount, converted by molar mass.
Assay: Water solubility of racecadotril
Type: physicochemical
Conditions: room temperature conditions

CC(=O)SCC(Cc1ccccc1)C(=O)NCC(=O)OCc1ccccc1 (racemic) [Racecadotril, (RS)-benzyl N-[3-(acetylthio)-2-benzylpropanoyl]glycinate]
solubility: ~10 µg/mL (≈ 25.9 µM)
